Patent US20240237526A1, “ORGANIC COMPOUND, LIGHT-EMITTING DEVICE, LIGHT-EMITTING APPARATUS, AND ELECTRONIC DEVICE” (SEMICONDUCTOR ENERGY LABORATORY CO., LTD., priority 2022, published 2024)

Test: solubility test in water by visual inspection
Assay type: physicochemical
Settings: room temperature (RT), one atmosphere, ultrasonic irradiation
Experimental: In this example, the solubility of the organic compound that can be used in the display apparatus of one embodiment of the present invention is described. Note that the solubility test was conducted at a pressure of one atmosphere at room temperature (RT).
(§1) Into a 110 mL sample bottle, 1.22 mg of 2tiiSF was put and 10 mL of water was added thereto. This mixture was irradiated with ultrasonic waves for one minute. A precipitated white powder was found by visual inspection for an insoluble residue. After further addition of 10 mL of water and one-minute ultrasonic wave irradiation, a precipitated white powder was found by visual inspection. This procedure was repeated until the dissolution was confirmed by visual inspection.
The precipitated white powder was found until the total amount of water reached 100 mL.
as §1, with “1.08” for “1.22”, “2hppSF” for “2tiiSF”
The precipitated white powder was found until the total amount of water reached 50 mL. […]

weight which can be dissolved in 1.0 mL of water: less than 0.012 mg
Compound: c1ccc2c(c1)-c1ccccc1C21c2ccccc2-c2ccc(N3CCN4CCN=C43)cc21 [2tiiSF, 1-(9,9′-spirobi[9H-fluoren]-2-yl)-2,3,5,6-tetrahydro-1H-imidazo[1,2-a]imidazole]
